From patent publication US20120149708A1, “MODULATORS OF VIRAL TRANSCRIPTION, AND METHODS AND COMPOSITIONS THEREWITH” (George Mason University, priority 2010, published 2012)

Tests used:
Assay type in all cases: cell-based
HIV-1 LTR-CAT reporter = test: CAT assay of Tat-mediated transactivation in HCT116 WT and Dicer-/- cells; conditions: HCT116 WT (Dicer) versus Dicer-/-; 48 hrs; Flavopiridol, CR8#13, F07#13 100 nm, 9AA 1000 nm
Method: Six hours later, the transfected cells were treated with DMSO, Flavopirodol (100 nm), CR8#13 (100 nm), F07#13 (100 nm), and 9AA (1000 nm). Treated cells were incubated in complete DMEM for 48 hrs at 37° C. Cells were harvested and cell extracts were used for CAT analysis. One tenth the amount of HCT116 Dicer−/−extract compared to HCT116 WT was used for CAT analysis. […] The corresponding bar graphs in A and B show values that represent the percentage of conversion of the [14C] chloramphenicol substrate in the CAT assay.
Various cells lines were transfected with the HIV-1 LTRCAT plasmid and pc-Tat to initiate the LTR transcription, and subsequently subjected to various drug treatments. After 48 hrs, cells were lysed and CAT assays were performed as previously described (Guendel et al, 2009; Van Duyne et al, 2008; Easley et al, 2010).
To evaluate the role on microRNA machinery in inhibition of viral transcription activity, HCT116 colon carcinoma cell lines that either contained a WT Dicer (HCT116 WT) or lacked the Dicer protein (HCT116 Dicer-−/−) were first transfected with the HIV-1 LTR-CAT reporter construct. The HIV-1 LTR transcription was activated with pc-Tat and following incubation for 6 hours was treated with DMSO (negative control), Flavopiridol (positive control), CR8#13, F07#13, or 9AA.
Cells were harvested 48 hrs-post treatment and processed for CAT assays (FIGS. 3A and B). […] Based on this observation the inventors hypothesize that the microRNA machinery, Dicer and Drosha, plays an inhibitory role in HIV-1 transcription.

U937 cells (uninfected) = test: Cell viability by trypan blue exclusion, 48 hours; conditions: for % Inhibition (percent dead cells) U937: 10 μM, 48 hours
Method: (§1) TZM-bl cell lines were grown in Dulbecco's modified Eagle's medium supplemented with fetal bovine serum (FBS) (10%, v/v), 2 mM L-glutamine, and antibiotics (penicillin 100 U/ml, streptomycin […]) (cDMEM). HCT116 WT and HCT116 Dicer−/−cell lines were grown in McCoy's medium supplemented with FBS (10%, v/v), 2mM L-glutamine, and antibiotics (penicillin 100 U/ml, streptomycin […]). CEM, ACH2, Jurkat and U937 cells were grown in RPMI 1640 supplemented with FBS, L-glutamine, and antibiotics (penicillin 100 U/ml, streptomycin […]). All cell lines were maintained at 37° C. in 5% (v/v) CO2.
(§2) ACH2 cells are infected with HIV-1; TZM-bl cells contain a stably-integrated HIV-1 LTR-Luciferase reporter; CEM, Jurkat, and U937 cells are uninfected. Transfections were carried out using Attractene (Qiagen) lipid reagent. Cells were cultured to confluence and pelleted at 4° C. for 15 min at 3,000 rpm. The cell pellets were washed twice with 25 ml of phosphate-buffered saline (PBS) with Ca2+ and Mg2+ (Quality Biological) and centrifuged once more. Cell pellets were resuspended in lysis buffer (50 mM Tris-HCl, pH 7.5, 120 mM NaCl, 5 mM EDTA, 0.5%, v/v, NP-40, 50 mM NaF, 0.2 mM Na3VO4, 1 mM DTT, one complete protease cocktail tablet/50 ml (Roche) and incubated on ice for 20 min, with gentle vortexing every 5 min. Cell lysates were transferred to eppendorf tubes and were centrifuged at 10,000 rpm for 10 min. Supernatants were transferred to a fresh tube where protein concentrations were determined using Bio-Rad protein assay (Bio-Rad, Hercules, Calif.).
(§3) In brief, the inhibition studies were carried out as follows. HIV-1 infected cells ACH2, J1.1, OM10.1, U1 and uninfected CEM, Jurkat T-cells, and U937 were cultured in media. The appropriate inhibitor was added at a concentration of 10 μM. Cells were treated for 48 hours and cell viability was determined using trypan blue exclusion method. Results of such a screen for 19 inhibitors is shown in Table 1 where percent dead cells are indicated each drug tested.
(§4) Again HIV-1 infected and uninfected cells were treated with eighteen Formula I compounds at a drug concentration of 50 nm. Forty-eight hours after treatment, cytotoxicity was determined by trypan blue dye exclusion. Percent inhibition was calculated after obtaining the cell density for each well of the tissue culture plate at the end of 48 hrs.

CEM cells (uninfected) = test: Cell viability by trypan blue exclusion, 48 hours; conditions: for % Inhibition (percent dead cells) CEM: 10 μM, 48 hours
Method: as §1, §2, §3, §4

[1] = test system: HIV-1 infected and uninfected cells; test: Classification of inhibitors by effect on viability of infected versus uninfected cells; conditions: high
Excerpt: The inhibitors were classified into three categories: high, moderate or poor, according to their effect on cellular viability in both HIV-1 infected and uninfected cells. Among the compounds tested in this study, CR8, a purine analog bearing a 2-pyridyl group para to the phenyl ring position 6 of the purine was the most promising drug candidate that killed HIV-1 infected cells, while having little or no effect on the death of uninfected cells.

[2] = test system: OM10.1 cells (HIV-1 infected); test: Cell viability by trypan blue exclusion, 48 hours; conditions: HIV-1 infected; for % Inhibition (percent dead cells) OM10.1: 10 μM, 48 hours
Method: as §3, §4

[3] = test system: U1 cells (HIV-1 infected); test: Cell viability by trypan blue exclusion, 48 hours; conditions: HIV-1 infected; for % Inhibition (percent dead cells) U1: 10 μM, 48 hours
Method: as §3, §4

[4] = test system: J1.1 cells (HIV-1 infected); test: Cell viability by trypan blue exclusion, 48 hours; conditions: HIV-1 infected; for % Inhibition (percent dead cells) J1.1: 10 μM, 48 hours
Method: as §3, §4

[5] = test system: ACH2 cells (HIV-1 infected); test: Cell viability by trypan blue exclusion, 48 hours; conditions: HIV-1 infected; for % Inhibition (percent dead cells) ACH2: 10 μM, 48 hours
Method: as §1, with “CO2. […]” for “CO2.”
as §3, §4

[6] = test system: Jurkat T-cells (uninfected); test: Cell viability by trypan blue exclusion, 48 hours; conditions: for % Inhibition (percent dead cells) Jurkat: 10 μM, 48 hours
Method: as §1, with “CO2. […]” for “CO2.”
as §3, §4

[7] = 10 μM, moderate or poor by effect on viability of infected and uninfected cells

Row | Structure (SMILES) | % Inhibition (percent dead cells) U937 (U937 cells (uninfected)) | % Inhibition (percent dead cells) CEM (CEM cells (uninfected)) | Selectivity [1, 7] | % Inhibition (percent dead cells) OM10.1 [2] | % Inhibition (percent dead cells) U1 [3] | % Inhibition (percent dead cells) J1.1 [4] | % Inhibition (percent dead cells) ACH2 [5] | % Inhibition (percent dead cells) Jurkat [6] | other results
1 | Nc1c2ccccc2nc2ccccc12 [9AA] | – | – | – | – | – | – | – | – | inhibition of viral transcription (CAT) (HIV-1 LTR-CAT reporter): only moderate inhibitory effects
2 | CC[C@H](CO)Nc1nc(Nc2cccc(-c3ccccn3)c2)c2ncn(C(C)C)c2n1 [R-DRF053] | − (1-5%) | − (1-5%) | Poor | − (1-5%) | − (1-5%) | − (1-5%) | − (1-5%) | − (1-5%) | –
3 | CC(C)c1cnn2c(NCc3ccc(-c4ccccn4)cc3)nc(N[C@H](CO)C(C)O)nc12 (stereo partly drawn) [MRT3-007, (2R, 3R)-2-(8-isopropyl-4-(4-(pyridine-2-yl)benzylamino)pyrazolo[1,5-α]-1,3,5-triazine-2-ylamino)butane-1,3-diol] | – | – | – | – | – | – | – | – | inhibition at 0.05 µM (U937 cells (uninfected); Homo sapiens, U-937, 50 nM, 48 hrs, read-out: Inhibition Percentage U937): 25%; inhibition at 0.05 µM (CEM cells (uninfected); Homo sapiens, CCRF-CEM, 48 h, 50 nM, 48 hrs, read-out: Inhibition Percentage CEM): 25%; Selectivity ([1]; 50 nM, moderate or poor): Moderate; inhibition at 0.05 µM ([2]; Human immunodeficiency virus 1, 50 nM, 48 hrs, read-out: Inhibition Percentage OM10.1): 50%; inhibition at 0.05 µM ([3]; Human immunodeficiency virus 1, 48 h, 50 nM, 48 hrs, read-out: Inhibition Percentage U1): 50%; inhibition at 0.05 µM ([4]; Human immunodeficiency virus 1, 48 h, 50 nM, 48 hrs, read-out: Inhibition Percentage J1.1): 50%; inhibition at 0.05 µM ([5]; Human immunodeficiency virus 1, ACH-2, 48 h, 50 nM, 48 hrs, read-out: Inhibition Percentage ACH2): 50%; inhibition at 0.05 µM ([6]; Homo sapiens, Jurkat, 50 nM, 48 hrs, read-out: Inhibition Percentage Jurkat): 25%
4 | CC(C)Oc1ccnc2[nH]cc(-c3ccnc(N)n3)c12 [Meriolin 6] | ++ (~50%) | − (1-5%) | High | ++++ (~90%) | − (1-5%) | +++ (~75%) | +++ (~75%) | − (1-5%) | –
5 | COc1ccnc2[nH]cc(-c3ccnc(N)n3)c12 [Meriolin 3] | − (1-5%) | − (1-5%) | Moderate | − (1-5%) | − (1-5%) | + (~25%) | ++ (~50%) | − (1-5%) | –
6 | CCCOc1ccnc2[nH]cc(-c3ccnc(N)n3)c12 [Meriolin5] | ++ (~50%) | − (1-5%) | High | ++++ (~90%) | − (1-5%) | ++ (~50%) | +++ (~75%) | − (1-5%) | –
7 | CN1C(=O)C(=C2Nc3ccccc3C2=NO)c2cccc(Br)c21 [1-methyl-7-bromo-indirubin-3′-oxime] | − (1-5%) | − (1-5%) | Poor | − (1-5%) | − (1-5%) | − (1-5%) | − (1-5%) | − (1-5%) | –
8 | CCOc1ccnc2[nH]cc(-c3ccnc(N)n3)c12 [Meriolin4] | ++ (~50%) | + (~25%) | High | +++ (~75%) | +++ (~75%) | +++ (~75%) | +++ (~75%) | ++ (~50%) | –
9 | Nc1nccc(-c2c3c(O)ccnc3n3c(N)nccc23)n1 [Variollin B] | − (1-5%) | − (1-5%) | Moderate | − (1-5%) | − (1-5%) | + (~25%) | ++ (~50%) | − (1-5%) | –
10 | CC[C@H](CO)Nc1nc(NCc2ccc(-c3ccccn3)cc2)n2ncc(C(C)C)c2n1 [MRT3-028, R-2-(8-isopropyl-4-(4-(pyridine-2-yl)benzylamino)pyrazolo[1,5-α]-1,3,5-triazine-2-ylamino)butan-1-ol] | – | – | – | – | – | – | – | – | Inhibition Percentage CEM (CEM cells (uninfected); 50 nM, 48 hrs): ++ (~50%); Selectivity ([1]; 50 nM, moderate or poor): High; Inhibition Percentage U1 ([3]; 50 nM, 48 hrs): + (~25%); Inhibition Percentage J1.1 ([4]; 50 nM, 48 hrs): +++ (~75%); Inhibition Percentage ACH2 ([5]; 50 nM, 48 hrs): +++ (~75%)
